According to US20240208937A1, “Compounds and Their Use for Treatment of Hemoglobinopathies” (Bristol-Myers Squibb Company, priority 2022, published 2024):

Assays:
Assay type in all cases: cell-based
[1] = target: ZBTB7A (Zinc Finger And BTB Domain Containing 7A) (Homo sapiens (Human), UniProt O95365+Q96SW2); experiment: HUDEP-2 ZBTB7A HiBiT degradation assay; settings: HUDEP-2 ZBTB7A HiBiT cells, 24 hours treatment, luminescence; for DC50: read-out: ZBTB7A EC50
Protocol: (§1) The HiBiT degradation assay for WIZ and ZBTB7A in HUDEP-2 cells was performed as described below. HUDEP-2 cells engineered to express a HiBiT tag in either the WIZ (Widely interspaced zinc finger) or ZBTB7A (Zinc Finger And BTB Domain Containing 7A) proteins were maintained in low attachment flasks in StemSpan SFEM II media supplemented with Penicillin-Streptomycin (50 U/mL), rhSCF (50 ng/mL), rhEPO (3 IU/mL), dexamethasone (0.4 μg/mL) and doxycycline (1 μg/mL). Prior to start of the assay, cell count and viability were measured by trypan blue exclusion using the Vi-cell XR cell viability analyzer. For the HUDEP-2 WIZ HiBiT assay, cells were transferred to a 50 mL conical and centrifuged at 500 g for five minutes. Cells were resuspended in fresh StemSpan SFEM II media supplemented with Penicillin-Streptomycin (50 U/mL), rhSCF (50 ng/mL), rhEPO (3 IU/mL), dexamethasone (0.4 μg/mL) and doxycycline (1 μg/mL) at a density of 1.0×10^6 cells/ml. Forty microliters of cell suspension was dispensed into 384-well Low Flange White Flat Bottom Polystyrene TC-treated Microplates containing pre-dispensed compounds, using a VIAFLO 384 liquid hander, and placed in a 37° C. incubator with 5% CO2. […] After 24 hours of treatment, 40 μL Nano-Glo HiBiT Lytic Detection System reagent was dispensed into each well using a VIAFLO 384 liquid hander. Plates were incubated for 25 minutes at room temperature and the luminescence was read as relative luminescent units using the EnVision plate reader. EC50 and Y-min values were calculated using curves calculated from dotmatics software after the normalization to the DMSO control of 10 different concentrations: 10, 3.33, 1.11, 0.37, 0.12, 0.04 0.0137, 0.0046, 0.0015 and 0.0005 μM respectively.
For the HUDEP-2 ZBTB7A HiBiT assay, cell count and viability were measured by trypan blue exclusion using the Vi-cell XR cell viability analyzer and the cells were transferred to a 50 mL conical and centrifuged at 500 g for five minutes. Cells were resuspended in fresh IMDM media supplemented with L-Glutamine (1×), Penicillin-Streptomycin (50 U/mL), holo-transferrin (330 μg/mL), heparin (2 IU/mL), r-human Insulin (10 μg/mL), rhEPO (3 IU/mL), rhSCF (100 ng/mL)+Dox (1 μg/mL) and 5% human plasma in low attachment flasks, which were placed in a 37° C. incubator with 5% CO2. After 48 hours, cell count and viability were measured by trypan blue exclusion using the Vi-cell XR cell viability analyzer. The HUDEP-2 ZBTB7A cells were transferred to a 50 mL conical, centrifuged at 500 g for five minutes and resuspended at a density of 1.0×10^6 cells/ml in IMDM media supplemented with L-Glutamine (1×), Penicillin-Streptomycin (50 U/mL), holo-transferrin (330 μg/mL), heparin (2 IU/mL), r-human Insulin (10 μg/mL), rhEPO (3 IU/mL), rhSCF (100 ng/mL)+Dox (1 μg/mL) and 5% human plasma. Forty microliters of cell suspension was dispensed into 384-well Low Flange White Flat Bottom Polystyrene TC-treated Microplates containing pre-dispensed compounds, using a VIAFLO 384 liquid hander, and placed in a 37° C. incubator with 5% CO2. […] After 24 hours of treatment, 40 μL Nano-Glo HiBiT Lytic Detection System reagent was dispensed into each well using a VIAFLO 384 liquid hander. Plates were incubated for 25 minutes at room temperature and the luminescence was read as relative luminescent units using the EnVision plate reader. EC50 and Y-min values were calculated using curves calculated from dotmatics software after the normalization to the DMSO control of 10 different concentrations: 10, 3.33, 1.11, 0.37, 0.12, 0.04 0.0137, 0.0046, 0.0015 and 0.0005 μM respectively.

[2] = system: fetal hemoglobin (HbF) in GCSF-mobilized human CD34+ cells; experiment: HbF Induction Assay; settings: 168 h; compound 1 μM, 7 days, erythroid-differentiated human CD34+ cells, flow cytometry; DMSO baseline 15% HbF positive cells
Protocol: The expansion, differentiation, and maturation of GCSF-mobilized human CD34^+ (STEMCELL Technologies Inc.) cells towards erythroid lineage cells were performed using a two-phase liquid culture model (Moutouh-de Parseval L A, el al. Pomalidomide and lenalidomide regulate erythropoiesis and fetal hemoglobin production in human CD34+ cells. J Clin Invest. 2008 January; 118(1):248-58). In the first phase, GCSF-mobilized human CD34^+ cells were cultured using StemSpan™-XF (STEMCELL Technologies Inc.) media supplemented with 1×BIT 9500, Penicillin-Streptomycin (50 U/mL), 100 ng/mL recombinant human (rh) SCF, 100 ng/mL rh Flt3-L, 20 ng/mL rh IL-3 and 10 ng/mL rh EPO and the growth of cells maintained in exponential phase for 7 days at 37° C. with 5% CO2 to support expansion and progenitor differentiation prior the second phase and treatment with compounds. In the second phase, culture media was changed to StemSpan™-XF media supplemented with 1×BIT 9500, Penicillin-Streptomycin (50 U/mL), 50 ng/mL rh SCF and 40 ng/mL rh EPO to promote further differentiation and maturation of the erythrocytes and to initiate treatment with compounds. Compounds were dispensed in duplicate at a final concentration of 1 μM in a final DMSO amount of 0.1%. Fresh compound was reapplied, and cell density was kept constant every 2 days. After 7 days, the cells were assessed for viability and fetal hemoglobin expression using flow cytometry. For viability analysis, eBioscience™ Fixable Viability Dye eFluor™ 780 (1:1000, eBioscience; Cat #65-0865-14) was added to the cells and kept in the dark for 10 minutes. For analysis of fetal hemoglobin (HbF), cells were fixed and permeabilized using Fixation Buffer (BioLegend; Cat #420801 and Intracellular staining permeabilization buffer (BioLegend, Cat #420201) following manufacturer's instructions. During permeabilization step, cells were stained with PE-labelled Mouse Anti-Human Fetal Hemoglobin (1:10, clone 2D12; BD Biosciences, Cat #BDB560041) incubated at room temperature for 20 minutes and protected from light. PE-labelled Mouse anti-IgG k, (1:10 clone MOPC-21; BD Biosciences, Cat# BDB551436) was used as an isotype control.
Viability, cell count, and fetal hemoglobin (HbF) levels were measured using an Attune NXT flow cytometer (Thermofisher) and the data analyzed using the FCS express software (De Novo Software). In Table 1 below, the effects of compounds of formula (I), formula (I′), formula (II), formula (II′), and formula (III) on % viable cells, viable cell count, on the % HbF positive cells and the median fluorescent intensity (MFI) of the HbF positive cell population compared to the DMSO controls can be viewed. All gates were set using the isotype negative control. The baseline % HbF positive cells for DMSO-treated control cells was 15%. Compounds of formula (I), formula (I′), formula (II), formula (II′), and formula (III) having HbF induction between 66% and 100% are level A. Compounds of formula (I), formula (I′), formula (II), formula (II′), and formula (III) having HbF induction between 33% and 66% are level B. Compounds of formula (I), formula (I′), formula (II), formula (II′), and formula (III) having HbF induction % less than 33% are level C. For certain compounds of formula (I), formula (I′), formula (II), formula (II′), and formula (III) % HbF induction values 0-33% (activity level C), between 33% and 66% (activity level B), and between 67% and 100% (activity level A) are shown in Table 2 below.

[3] = target: WIZ (Widely interspaced zinc finger) (Homo sapiens (Human), UniProt O95785+Q96SW2); experiment: HUDEP-2 WIZ HiBiT degradation assay; settings: HUDEP-2 WIZ HiBiT cells, 24 hours treatment, luminescence; for DC50: read-out: WIZ EC50
Protocol: as §1

Chain of ZBTB7A (Zinc Finger And BTB Domain Containing 7A) (O95365 whole entry, the tested form may be a part): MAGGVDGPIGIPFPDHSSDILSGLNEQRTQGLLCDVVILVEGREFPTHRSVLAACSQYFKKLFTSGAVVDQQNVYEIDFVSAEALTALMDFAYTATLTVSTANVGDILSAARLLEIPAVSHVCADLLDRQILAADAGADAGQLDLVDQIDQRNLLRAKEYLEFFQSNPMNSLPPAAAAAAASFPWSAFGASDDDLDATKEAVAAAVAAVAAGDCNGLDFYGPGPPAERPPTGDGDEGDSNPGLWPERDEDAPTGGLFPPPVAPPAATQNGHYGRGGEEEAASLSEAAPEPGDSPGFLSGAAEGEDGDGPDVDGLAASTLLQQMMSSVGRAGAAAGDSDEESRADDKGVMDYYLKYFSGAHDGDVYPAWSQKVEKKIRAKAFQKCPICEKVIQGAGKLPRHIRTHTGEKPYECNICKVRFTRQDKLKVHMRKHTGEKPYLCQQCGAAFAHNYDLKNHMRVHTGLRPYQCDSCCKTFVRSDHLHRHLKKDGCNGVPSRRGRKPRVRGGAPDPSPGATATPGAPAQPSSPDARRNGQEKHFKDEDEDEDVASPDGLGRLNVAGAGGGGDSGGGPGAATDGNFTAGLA
Chain of ZBTB7A (Zinc Finger And BTB Domain Containing 7A) (Q96SW2 whole entry, the tested form may be a part): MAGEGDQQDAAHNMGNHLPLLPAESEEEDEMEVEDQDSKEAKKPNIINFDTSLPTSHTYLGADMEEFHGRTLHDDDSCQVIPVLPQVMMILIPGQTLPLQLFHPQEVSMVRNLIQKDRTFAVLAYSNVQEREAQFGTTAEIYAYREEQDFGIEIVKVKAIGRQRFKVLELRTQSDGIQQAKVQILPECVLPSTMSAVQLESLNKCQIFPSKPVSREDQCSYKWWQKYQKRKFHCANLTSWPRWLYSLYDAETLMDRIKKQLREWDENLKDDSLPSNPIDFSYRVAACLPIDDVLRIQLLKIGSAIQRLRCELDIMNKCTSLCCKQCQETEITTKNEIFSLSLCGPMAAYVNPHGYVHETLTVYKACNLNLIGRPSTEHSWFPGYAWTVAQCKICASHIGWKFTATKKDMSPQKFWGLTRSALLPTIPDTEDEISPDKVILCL
Chain of ZBTB7A (Zinc Finger And BTB Domain Containing 7A) (Q16531 whole entry partner, the tested form may be a part): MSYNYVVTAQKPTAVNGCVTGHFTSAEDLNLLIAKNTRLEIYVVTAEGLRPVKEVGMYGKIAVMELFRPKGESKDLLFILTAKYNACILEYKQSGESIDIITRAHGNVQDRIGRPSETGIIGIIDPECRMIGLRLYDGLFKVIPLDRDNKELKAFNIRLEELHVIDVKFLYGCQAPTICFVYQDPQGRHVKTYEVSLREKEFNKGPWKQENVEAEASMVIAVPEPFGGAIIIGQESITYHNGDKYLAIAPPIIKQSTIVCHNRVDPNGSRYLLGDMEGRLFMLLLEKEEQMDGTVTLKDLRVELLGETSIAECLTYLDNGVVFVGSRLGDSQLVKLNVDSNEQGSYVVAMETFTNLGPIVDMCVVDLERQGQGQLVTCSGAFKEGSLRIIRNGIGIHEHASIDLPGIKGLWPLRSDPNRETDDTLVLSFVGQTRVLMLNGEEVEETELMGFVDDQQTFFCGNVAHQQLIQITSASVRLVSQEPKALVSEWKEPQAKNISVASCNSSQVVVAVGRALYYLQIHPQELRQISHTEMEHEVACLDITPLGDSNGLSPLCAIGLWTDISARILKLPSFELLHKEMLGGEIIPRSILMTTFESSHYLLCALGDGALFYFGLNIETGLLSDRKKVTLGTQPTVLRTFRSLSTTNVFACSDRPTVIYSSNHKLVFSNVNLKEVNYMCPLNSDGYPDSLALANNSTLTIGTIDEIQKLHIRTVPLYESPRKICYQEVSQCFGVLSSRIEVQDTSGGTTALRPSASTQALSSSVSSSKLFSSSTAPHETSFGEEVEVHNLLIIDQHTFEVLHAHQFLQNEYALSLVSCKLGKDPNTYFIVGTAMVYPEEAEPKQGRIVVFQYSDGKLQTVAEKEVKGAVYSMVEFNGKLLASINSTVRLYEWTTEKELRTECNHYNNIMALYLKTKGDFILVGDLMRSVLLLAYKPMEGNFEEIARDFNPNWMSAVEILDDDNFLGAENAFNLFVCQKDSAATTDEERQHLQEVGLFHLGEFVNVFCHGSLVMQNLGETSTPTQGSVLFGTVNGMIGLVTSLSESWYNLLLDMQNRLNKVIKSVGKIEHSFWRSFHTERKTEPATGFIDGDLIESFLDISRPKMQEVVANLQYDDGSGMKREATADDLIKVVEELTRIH
Chain of WIZ (Widely interspaced zinc finger) (O95785 whole entry): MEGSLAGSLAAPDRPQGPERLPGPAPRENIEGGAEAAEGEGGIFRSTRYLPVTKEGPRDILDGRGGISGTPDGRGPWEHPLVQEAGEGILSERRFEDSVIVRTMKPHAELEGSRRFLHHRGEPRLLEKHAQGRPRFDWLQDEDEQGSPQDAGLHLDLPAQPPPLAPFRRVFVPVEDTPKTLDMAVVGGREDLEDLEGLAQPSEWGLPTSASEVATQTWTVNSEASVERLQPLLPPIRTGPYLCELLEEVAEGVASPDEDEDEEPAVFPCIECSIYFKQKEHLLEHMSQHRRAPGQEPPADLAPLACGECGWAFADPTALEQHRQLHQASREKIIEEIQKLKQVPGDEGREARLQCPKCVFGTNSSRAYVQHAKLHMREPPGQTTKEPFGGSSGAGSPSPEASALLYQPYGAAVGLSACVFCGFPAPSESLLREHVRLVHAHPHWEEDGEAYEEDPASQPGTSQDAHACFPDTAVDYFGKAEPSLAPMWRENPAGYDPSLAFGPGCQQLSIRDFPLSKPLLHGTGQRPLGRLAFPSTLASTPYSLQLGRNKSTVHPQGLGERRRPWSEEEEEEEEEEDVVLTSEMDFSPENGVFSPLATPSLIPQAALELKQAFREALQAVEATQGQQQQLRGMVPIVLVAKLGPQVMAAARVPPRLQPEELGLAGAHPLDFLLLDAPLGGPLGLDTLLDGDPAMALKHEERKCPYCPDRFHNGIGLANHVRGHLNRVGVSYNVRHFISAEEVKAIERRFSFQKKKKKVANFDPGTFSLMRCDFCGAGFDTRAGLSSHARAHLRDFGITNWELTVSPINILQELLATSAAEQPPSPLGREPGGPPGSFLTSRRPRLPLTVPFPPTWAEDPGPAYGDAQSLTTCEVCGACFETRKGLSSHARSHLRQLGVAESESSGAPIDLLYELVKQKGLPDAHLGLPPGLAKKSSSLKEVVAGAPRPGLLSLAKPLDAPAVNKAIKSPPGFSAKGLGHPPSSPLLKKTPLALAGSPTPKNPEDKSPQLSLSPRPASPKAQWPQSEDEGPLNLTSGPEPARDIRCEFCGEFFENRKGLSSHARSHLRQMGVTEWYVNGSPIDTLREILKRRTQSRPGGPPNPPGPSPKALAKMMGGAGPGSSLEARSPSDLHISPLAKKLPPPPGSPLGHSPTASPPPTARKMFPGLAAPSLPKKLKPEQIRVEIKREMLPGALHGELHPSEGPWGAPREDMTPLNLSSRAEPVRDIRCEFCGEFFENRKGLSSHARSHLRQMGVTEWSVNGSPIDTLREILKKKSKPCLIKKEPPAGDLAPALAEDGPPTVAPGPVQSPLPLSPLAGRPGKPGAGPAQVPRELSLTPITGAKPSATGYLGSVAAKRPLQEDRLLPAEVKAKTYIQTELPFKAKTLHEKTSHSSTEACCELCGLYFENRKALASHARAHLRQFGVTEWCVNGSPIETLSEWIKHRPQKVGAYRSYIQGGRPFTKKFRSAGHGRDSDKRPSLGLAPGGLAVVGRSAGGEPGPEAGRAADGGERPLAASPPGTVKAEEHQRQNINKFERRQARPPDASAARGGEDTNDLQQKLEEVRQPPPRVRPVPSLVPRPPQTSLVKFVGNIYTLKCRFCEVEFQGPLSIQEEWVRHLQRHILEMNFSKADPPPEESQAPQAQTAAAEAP
Chain of WIZ (Widely interspaced zinc finger) (Q96SW2 whole entry): as the sequence (Q96SW2 whole entry, the tested form may be a part) above
Chain of WIZ (Widely interspaced zinc finger) (Q16531 whole entry partner): as the sequence (Q16531 whole entry partner, the tested form may be a part) above

| SMILES | DC50 [1] [nM] | activation at 1 µM [2] [%] | DC50 [3] [nM] | EC50 [1] [nM] | EC50 [3] [nM] |
| --- | --- | --- | --- | --- | --- |
| Cc1cc(-c2cc3nc(C)n(C)c3cc2Nc2cccc3c2C(=O)N(C2CCC(=O)NC2=O)C3=O)ccn1 (stereo not shown) [Compound 1, 4-((1,2-dimethyl-5-(2-methylpyridin-4-yl)-1H-benzo[d]imidazol-6-yl)amino)-2-(2,6-dioxopiperidin-3-yl)isoindoline-1,3-dione] | < 30 | 66 to 100 | 10 to 100 | – | – |
| Cc1cc2c(cc1Nc1cccc3c1C(=O)N(C1CCC(=O)NC1=O)C3=O)N(C)C(=O)CC2 (stereo not shown) [Compound 33, 4-((1,6-dimethyl-2-oxo-1,2,3,4-tetrahydroquinolin-7-yl)amino)-2-(2,6-dioxopiperidin-3-yl)isoindoline-1,3-dione] | 30 to 100 | – | 10 to 100 | – | – |
| CN1C(=O)CCc2cc(C3CC3)c(Nc3cccc4c3C(=O)N(C3CCC(=O)NC3=O)C4=O)cc21 (stereo not shown) [Compound 34, 4-((6-cyclopropyl-1-methyl-2-oxo-1,2,3,4-tetrahydroquinolin-7-yl)amino)-2-(2,6-dioxopiperidin-3-yl)isoindoline-1,3-dione] | – | – | 10 to 100 | < 30 | – |
| Cc1cc(-c2cc3c(cc2Nc2cccc4c2C(=O)N([C@H]2CCC(=O)NC2=O)C4=O)N(C)C(=O)CC3)cn(C)c1=O [Compound 35, (S)-4-((6-(1,5-dimethyl-6-oxo-1,6-dihydropyridin-3-yl)-1-methyl-2-oxo-1,2,3,4-tetrahydroquinolin-7-yl)amino)-2-(2,6-dioxopiperidin-3-yl)isoindoline-1,3-dione] | 30 to 100 | – | 10 to 100 | – | – |
| CN1C(=O)CCc2cc(-c3cnn(C)c3)c(Nc3cccc4c3C(=O)N(C3CCC(=O)NC3=O)C4=O)cc21 (stereo not shown) [Compound 36, 2-(2,6-dioxopiperidin-3-yl)-4-((1-methyl-6-(1-methyl-1H-pyrazol-4-yl)-2-oxo-1,2,3,4-tetrahydroquinolin-7-yl)amino)isoindoline-1,3-dione] | – | – | 10 to 100 | < 30 | – |
| CN1C(=O)CCc2cc(-c3cnn(C4CC4)c3)c(Nc3cccc4c3C(=O)N([C@H]3CCC(=O)NC3=O)C4=O)cc21 [Compound 37, (S)-4-((6-(1-cyclopropyl-1H-pyrazol-4-yl)-1-methyl-2-oxo-1,2,3,4-tetrahydroquinolin-7-yl)amino)-2-(2,6-dioxopiperidin-3-yl)isoindoline-1,3-dione] | – | – | – | < 30 | < 10 |
| Cc1nn(C)cc1-c1cc2c(cc1Nc1cccc3c1C(=O)N([C@H]1CCC(=O)NC1=O)C3=O)N(C)C(=O)CC2 [Compound 38, (S)-4-((6-(1,3-dimethyl-1H-pyrazol-4-yl)-1-methyl-2-oxo-1,2,3,4-tetrahydroquinolin-7-yl)amino)-2-(2,6-dioxopiperidin-3-yl)isoindoline-1,3-dione] | – | – | 10 to 100 | < 30 | – |
| COc1cc(-c2cc3c(cc2Nc2cccc4c2C(=O)N([C@H]2CCC(=O)NC2=O)C4=O)N(C)C(=O)CC3)cc(C)n1 [Compound 49, (S)-2-(2,6-dioxopiperidin-3-yl)-4-((6-(2-methoxy-6-methylpyridin-4-yl)-1-methyl-2-oxo-1,2,3,4-tetrahydroquinolin-7-yl)amino)isoindoline-1,3-dione] | – | – | – | < 30 | < 10 |
| COc1nccc(-c2cc3c(cc2Nc2cccc4c2C(=O)N(C2CCC(=O)NC2=O)C4=O)N(C)C(=O)CC3)c1F (stereo not shown) [Compound 50, 2-(2,6-dioxopiperidin-3-yl)-4-((6-(3-fluoro-2-methoxypyridin-4-yl)-1-methyl-2-oxo-1,2,3,4-tetrahydroquinolin-7-yl)amino)isoindoline-1,3-dione] | – | – | 10 to 100 | < 30 | – |
| COc1cc(-c2cc3c(cc2Nc2cccc4c2C(=O)N(C2CCC(=O)NC2=O)C4=O)N(C)C(=O)CC3)c(F)cn1 (stereo not shown) [Compound 51, 2-(2,6-dioxopiperidin-3-yl)-4-((6-(5-fluoro-2-methoxypyridin-4-yl)-1-methyl-2-oxo-1,2,3,4-tetrahydroquinolin-7-yl)amino)isoindoline-1,3-dione] | 30 to 100 | – | 10 to 100 | – | – |
| Cc1cc(-c2cc3c(cc2Nc2cccc4c2C(=O)N([C@]2(C)CCC(=O)NC2=O)C4=O)N(C)C(=O)CC3)ccn1 [Compound 53, (R)-2-(3-methyl-2,6-dioxopiperidin-3-yl)-4-((1-methyl-6-(2-methylpyridin-4-yl)-2-oxo-1,2,3,4-tetrahydroquinolin-7-yl)amino)isoindoline-1,3-dione] | – | – | > 100 | > 100 | – |
| CC1(N2C(=O)c3cccc(Nc4cccc(COc5ccccc5)c4)c3C2=O)CCC(=O)NC1=O (stereo not shown) [Compound 54, 2-(3-methyl-2,6-dioxopiperidin-3-yl)-4-((3-(phenoxymethyl)phenyl)amino)isoindoline-1,3-dione] | – | – | > 100 | > 100 | – |
